The conditions of data set [1]: cited from earlier work.
For data set [2], the target named is BRAF (Homo sapiens, UniProt P15056). As to the kind of experiment: HotSpot 10-dose dose-response kinase assay: BRAF. The data set is classed as biochemical. Particulars: read-out: Dose-response IC50 BRAF; 10-dose dose-response, 1 μM ATP.
In data set [3] the target is JAK1 (Homo sapiens, UniProt P23458). As to the kind of experiment: HotSpot 10-dose dose-response kinase assay: JAK1. It is filed as biochemical. Particulars: read-out: Dose-response IC50 JAK1; 10-dose dose-response, 1 μM ATP.
Data set [4] deals with JAK2 (Homo sapiens, UniProt O60674). As to the kind of experiment: HotSpot 10-dose dose-response kinase assay: JAK2. The data set is classed as biochemical. Particulars: read-out: Dose-response IC50 JAK2; 10-dose dose-response, 1 μM ATP.
In data set [5] the target is EGFR (L858R, T790M) (Homo sapiens, UniProt P00533, L858R/T790M). As to the kind of experiment: HotSpot 10-dose dose-response kinase assay: EGFR. It is filed as biochemical. Particulars: read-out: Dose-response IC50 EGFR (L858R, T790M); 10-dose dose-response, 1 μM ATP.
Data set [6] addresses PKCepsilon (Homo sapiens, UniProt Q02156). Nature of the data set: HotSpot 10-dose dose-response kinase assay: PKCepsilon. Particulars: read-out: Dose-response IC50 PKCepsilon; 10-dose dose-response, 1 μM ATP. The data set is classed as biochemical.
For data set [7], the target named is DDR2 (Homo sapiens, UniProt Q16832). Nature of the data set: HotSpot 10-dose dose-response kinase assay: DDR2. Particulars: read-out: Dose-response IC50 DDR2; 10-dose dose-response, 1 μM ATP. It is filed as biochemical.
The target of data set [8] is TYK2 (Homo sapiens, UniProt P29597). As to the kind of experiment: 369-kinase HotSpot kinome screen: TYK2. Particulars: read-out: Tyk2 inhibition, from kinome screen. It is filed as biochemical.
In data set [9] the target is EGFR (d746–750) (Homo sapiens, UniProt P00533, DEL746-750). As to the kind of experiment: HotSpot 10-dose dose-response kinase assay: EGFR. It is filed as biochemical. Particulars: read-out: Dose-response IC50 EGFR (d746–750); 10-dose dose-response, 1 μM ATP.
Data set [10] has as its target EGFR (T790M) (Homo sapiens, UniProt P00533, T790M). As to the kind of experiment: HotSpot 10-dose dose-response kinase assay: EGFR. It is filed as biochemical. Particulars: read-out: Dose-response IC50 EGFR (T790M); 10-dose dose-response, 1 μM ATP.
Data set [11] addresses BRAF (V599E) (Homo sapiens, UniProt P15056, V600E). Nature of the data set: HotSpot 10-dose dose-response kinase assay: BRAF. It is filed as biochemical. Particulars: read-out: Dose-response IC50 BRAF (V599E); 10-dose dose-response, 1 μM ATP.
The target of data set [12] is JAK3 (Homo sapiens, UniProt P52333). As to the kind of experiment: HotSpot 10-dose dose-response kinase assay: JAK3. The data set is classed as biochemical. Particulars: read-out: Dose-response IC50 JAK3; 10-dose dose-response, 1 μM ATP.
For data set [13], the target named is PDGFRa (Homo sapiens, UniProt P16234). Nature of the data set: HotSpot 10-dose dose-response kinase assay: PDGFRa. The data set is classed as biochemical. Particulars: read-out: Dose-response IC50 PDGFRa; 10-dose dose-response, 1 μM ATP.
The target in data set [14] is EGFR (G719S) (Homo sapiens, UniProt P00533, G719S). As to the kind of experiment: HotSpot 10-dose dose-response kinase assay: EGFR. The data set is classed as biochemical. Particulars: read-out: Dose-response IC50 EGFR (G719S); 10-dose dose-response, 1 μM ATP.
Data set [15] deals with RET (Homo sapiens, UniProt P07949). Nature of the data set: HotSpot 10-dose dose-response kinase assay: RET. It is filed as biochemical. Particulars: read-out: Dose-response IC50 RET; 10-dose dose-response, 1 μM ATP.
The target in data set [16] is EGFR (L858R) (Homo sapiens, UniProt P00533, L858R). As to the kind of experiment: HotSpot 10-dose dose-response kinase assay: EGFR. It is filed as biochemical. Particulars: read-out: Dose-response IC50 EGFR (L858R); 10-dose dose-response, 1 μM ATP.
For data set [17], the system named is ANT. Particulars: read-out: IC50 ANT inhibition; cited from earlier work.
Data set [18] has as its target ABL1 (Homo sapiens, UniProt P00519). Nature of the data set: HotSpot 10-dose dose-response kinase assay: ABL1. The data set is classed as biochemical. Particulars: read-out: Dose-response IC50 ABL1; 10-dose dose-response, 1 μM ATP.
Data set [19] deals with kinases. Nature of the data set: Other kinase assays. It is filed as biochemical. Particulars: Figures S10 and S11.
The target of data set [20] is EGFR (Homo sapiens, UniProt P00533). Nature of the data set: EGFR wild type kinase-domain inhibition assay.
Data set [21] concerns MCF-7, SW620, SW480, H460, A549, and MDA-MB-231 cell lines. As to the kind of experiment: GGOH rescue of cell growth inhibition. The data set is classed as cell-based. Particulars: six cell lines, 20 μM GGOH.

Sequence of BRAF (P15056 whole entry): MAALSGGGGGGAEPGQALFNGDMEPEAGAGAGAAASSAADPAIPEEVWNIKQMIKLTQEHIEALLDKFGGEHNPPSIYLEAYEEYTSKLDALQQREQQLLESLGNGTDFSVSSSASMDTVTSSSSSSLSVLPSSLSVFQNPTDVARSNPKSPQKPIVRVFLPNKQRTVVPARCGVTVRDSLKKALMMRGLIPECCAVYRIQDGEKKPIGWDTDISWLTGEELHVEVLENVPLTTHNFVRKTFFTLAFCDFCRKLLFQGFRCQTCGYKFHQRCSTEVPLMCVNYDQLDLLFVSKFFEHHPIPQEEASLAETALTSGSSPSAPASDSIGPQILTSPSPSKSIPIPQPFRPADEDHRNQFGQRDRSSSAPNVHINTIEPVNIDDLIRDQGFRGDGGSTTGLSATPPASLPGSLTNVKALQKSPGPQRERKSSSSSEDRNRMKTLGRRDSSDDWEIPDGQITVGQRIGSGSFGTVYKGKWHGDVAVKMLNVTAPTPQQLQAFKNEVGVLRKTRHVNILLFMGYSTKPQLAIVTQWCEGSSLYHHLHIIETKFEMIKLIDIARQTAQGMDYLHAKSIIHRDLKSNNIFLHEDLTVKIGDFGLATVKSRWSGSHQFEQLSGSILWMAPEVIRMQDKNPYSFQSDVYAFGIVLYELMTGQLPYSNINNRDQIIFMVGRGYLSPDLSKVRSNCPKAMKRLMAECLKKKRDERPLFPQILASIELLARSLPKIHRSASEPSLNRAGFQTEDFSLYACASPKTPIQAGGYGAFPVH
Sequence of DDR2 (Q16832 22-855): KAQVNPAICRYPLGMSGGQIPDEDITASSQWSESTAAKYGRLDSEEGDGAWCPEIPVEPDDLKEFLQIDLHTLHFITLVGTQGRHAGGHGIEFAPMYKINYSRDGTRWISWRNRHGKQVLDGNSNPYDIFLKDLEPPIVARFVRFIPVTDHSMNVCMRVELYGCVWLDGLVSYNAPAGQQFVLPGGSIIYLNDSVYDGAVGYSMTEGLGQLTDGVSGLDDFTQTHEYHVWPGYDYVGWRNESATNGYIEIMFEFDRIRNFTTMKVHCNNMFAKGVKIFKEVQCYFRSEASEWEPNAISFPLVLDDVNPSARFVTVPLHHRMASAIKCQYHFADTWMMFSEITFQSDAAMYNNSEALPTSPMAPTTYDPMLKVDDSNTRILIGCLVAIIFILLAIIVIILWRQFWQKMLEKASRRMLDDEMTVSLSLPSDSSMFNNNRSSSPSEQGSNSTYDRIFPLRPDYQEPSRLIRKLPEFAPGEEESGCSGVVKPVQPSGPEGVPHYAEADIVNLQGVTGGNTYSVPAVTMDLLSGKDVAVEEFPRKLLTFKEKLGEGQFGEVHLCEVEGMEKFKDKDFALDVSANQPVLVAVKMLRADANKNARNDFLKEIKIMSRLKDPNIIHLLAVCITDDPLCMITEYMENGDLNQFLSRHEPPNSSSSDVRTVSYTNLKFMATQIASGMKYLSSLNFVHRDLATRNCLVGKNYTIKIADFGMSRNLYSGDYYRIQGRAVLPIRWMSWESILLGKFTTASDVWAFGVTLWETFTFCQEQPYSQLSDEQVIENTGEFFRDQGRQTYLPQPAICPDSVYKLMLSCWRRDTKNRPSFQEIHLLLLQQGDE
Sequence of JAK1 (P23458 whole entry): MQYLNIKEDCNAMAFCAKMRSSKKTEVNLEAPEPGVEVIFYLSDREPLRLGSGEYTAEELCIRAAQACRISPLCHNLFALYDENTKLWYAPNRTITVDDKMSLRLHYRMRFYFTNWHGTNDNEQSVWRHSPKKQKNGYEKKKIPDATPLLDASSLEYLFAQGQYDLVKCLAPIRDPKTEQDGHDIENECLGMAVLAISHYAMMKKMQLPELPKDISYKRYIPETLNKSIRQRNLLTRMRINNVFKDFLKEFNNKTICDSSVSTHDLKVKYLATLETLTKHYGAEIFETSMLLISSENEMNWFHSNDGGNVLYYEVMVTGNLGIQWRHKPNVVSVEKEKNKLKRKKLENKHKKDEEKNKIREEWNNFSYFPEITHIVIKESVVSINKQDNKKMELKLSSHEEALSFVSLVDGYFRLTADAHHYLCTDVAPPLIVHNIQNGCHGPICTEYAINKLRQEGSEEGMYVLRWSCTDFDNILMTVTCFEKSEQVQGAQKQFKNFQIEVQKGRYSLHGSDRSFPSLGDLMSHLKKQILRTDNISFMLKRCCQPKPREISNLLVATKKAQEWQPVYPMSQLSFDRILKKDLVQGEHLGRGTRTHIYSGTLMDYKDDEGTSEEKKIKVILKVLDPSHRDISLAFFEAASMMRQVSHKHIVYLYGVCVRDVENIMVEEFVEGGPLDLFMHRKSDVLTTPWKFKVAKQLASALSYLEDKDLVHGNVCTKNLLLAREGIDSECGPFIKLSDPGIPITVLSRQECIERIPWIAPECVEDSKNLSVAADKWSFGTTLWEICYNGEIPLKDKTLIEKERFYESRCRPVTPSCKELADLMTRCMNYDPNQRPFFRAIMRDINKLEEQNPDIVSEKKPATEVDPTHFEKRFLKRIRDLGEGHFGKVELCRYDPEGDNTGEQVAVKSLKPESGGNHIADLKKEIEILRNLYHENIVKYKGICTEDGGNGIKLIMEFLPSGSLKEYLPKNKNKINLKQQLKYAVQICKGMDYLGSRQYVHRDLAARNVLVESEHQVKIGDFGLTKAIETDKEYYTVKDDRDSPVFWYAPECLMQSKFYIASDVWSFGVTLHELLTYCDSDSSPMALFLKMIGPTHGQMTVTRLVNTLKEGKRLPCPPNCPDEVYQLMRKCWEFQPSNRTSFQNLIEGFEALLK
Sequence of BRAF (V599E) (P15056 416-766 V600E limits assumed): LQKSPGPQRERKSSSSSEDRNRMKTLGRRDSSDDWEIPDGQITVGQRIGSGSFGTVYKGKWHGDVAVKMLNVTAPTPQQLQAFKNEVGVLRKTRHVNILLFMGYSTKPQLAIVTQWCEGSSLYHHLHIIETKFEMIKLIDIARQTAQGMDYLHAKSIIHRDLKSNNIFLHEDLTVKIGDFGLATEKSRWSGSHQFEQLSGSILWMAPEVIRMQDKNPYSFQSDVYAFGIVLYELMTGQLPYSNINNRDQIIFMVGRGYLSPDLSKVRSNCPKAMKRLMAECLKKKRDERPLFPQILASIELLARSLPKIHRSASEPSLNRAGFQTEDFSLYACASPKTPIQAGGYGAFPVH
Sequence of PKCepsilon (Q02156 whole entry): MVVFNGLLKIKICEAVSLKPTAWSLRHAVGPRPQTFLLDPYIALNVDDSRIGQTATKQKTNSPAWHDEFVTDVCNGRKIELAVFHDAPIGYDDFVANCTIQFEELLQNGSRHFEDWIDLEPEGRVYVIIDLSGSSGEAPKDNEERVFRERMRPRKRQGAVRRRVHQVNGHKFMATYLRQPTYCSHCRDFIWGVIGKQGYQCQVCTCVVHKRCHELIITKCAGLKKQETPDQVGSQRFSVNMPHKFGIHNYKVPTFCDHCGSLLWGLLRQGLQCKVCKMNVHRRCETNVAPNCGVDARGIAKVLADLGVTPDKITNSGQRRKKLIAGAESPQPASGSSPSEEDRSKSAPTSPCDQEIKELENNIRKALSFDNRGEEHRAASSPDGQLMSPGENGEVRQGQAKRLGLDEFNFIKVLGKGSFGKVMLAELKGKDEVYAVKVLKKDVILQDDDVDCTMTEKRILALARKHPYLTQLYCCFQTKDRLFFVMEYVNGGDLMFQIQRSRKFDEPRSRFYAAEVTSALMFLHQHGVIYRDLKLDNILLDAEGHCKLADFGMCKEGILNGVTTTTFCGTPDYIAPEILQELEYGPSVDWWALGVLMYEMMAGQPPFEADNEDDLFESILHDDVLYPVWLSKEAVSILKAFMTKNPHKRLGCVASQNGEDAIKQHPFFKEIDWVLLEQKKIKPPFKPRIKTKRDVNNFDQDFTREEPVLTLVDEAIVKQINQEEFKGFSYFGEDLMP
Sequence of RET (P07949 29-1114): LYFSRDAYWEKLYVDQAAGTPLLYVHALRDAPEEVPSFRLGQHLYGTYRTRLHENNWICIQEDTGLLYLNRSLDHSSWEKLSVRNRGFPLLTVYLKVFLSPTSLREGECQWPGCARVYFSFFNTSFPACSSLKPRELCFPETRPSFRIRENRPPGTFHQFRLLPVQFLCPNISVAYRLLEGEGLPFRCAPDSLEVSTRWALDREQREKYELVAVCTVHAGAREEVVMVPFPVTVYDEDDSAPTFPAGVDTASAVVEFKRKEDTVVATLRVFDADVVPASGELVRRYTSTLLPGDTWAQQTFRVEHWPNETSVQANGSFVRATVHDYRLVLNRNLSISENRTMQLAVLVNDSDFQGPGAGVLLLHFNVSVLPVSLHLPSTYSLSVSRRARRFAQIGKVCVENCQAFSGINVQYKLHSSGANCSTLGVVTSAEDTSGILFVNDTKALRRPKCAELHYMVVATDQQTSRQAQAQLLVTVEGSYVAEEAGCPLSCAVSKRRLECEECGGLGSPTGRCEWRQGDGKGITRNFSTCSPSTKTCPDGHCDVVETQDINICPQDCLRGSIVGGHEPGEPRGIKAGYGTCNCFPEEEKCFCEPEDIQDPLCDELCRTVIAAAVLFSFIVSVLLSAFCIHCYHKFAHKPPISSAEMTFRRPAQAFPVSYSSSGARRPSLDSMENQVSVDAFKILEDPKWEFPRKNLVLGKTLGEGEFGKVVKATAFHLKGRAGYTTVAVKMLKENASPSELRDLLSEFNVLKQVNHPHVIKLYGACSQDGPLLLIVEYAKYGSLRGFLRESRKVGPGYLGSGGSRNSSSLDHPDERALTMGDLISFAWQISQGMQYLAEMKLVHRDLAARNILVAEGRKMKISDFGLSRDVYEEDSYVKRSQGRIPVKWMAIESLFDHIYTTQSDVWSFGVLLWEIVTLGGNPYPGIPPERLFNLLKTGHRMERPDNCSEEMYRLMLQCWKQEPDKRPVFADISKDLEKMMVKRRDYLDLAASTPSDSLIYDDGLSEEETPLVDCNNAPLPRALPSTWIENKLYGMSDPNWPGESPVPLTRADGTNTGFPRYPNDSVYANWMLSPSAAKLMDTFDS

Regarding `Nc1ncnc2c1ncn2[C@@H]1O[C@H](COP(=O)(O)OP(=O)(O)OP(=O)(O)O)[C@@H](O)[C@H]1O` [ATP], in [1], the pKa4 was 7.1.
Turning to `Nc1ncnc2c1ncn2[C@@H]1O[C@H](COP(=O)(O)OP(=O)(O)C(Cl)(Cl)P(=O)(O)O)[C@@H](O)[C@H]1O` [compound 4, adenosine 5′-(beta, gamma-dichloro-methylene) diphosphate], the IC50 worked out at 6400 nM in [2]; 66 nM in data set [3]; 13 nM in [4]; 80 nM in data set [5]; 43 nM in data set [6]; 47 nM in data set [7]. The IC50 in [8] was roughly 230 nM; in [9], 4300 nM; in data set [10], 270 nM; in data set [11], 230000 nM; in data set [12] it was 5 nM; in [13], 4 nM. For the same compound, the IC50 in [14] was 760 nM; in data set [15] it was 140 nM; in [16], 490 nM; in [17], roughly 50000 nM; in data set [18], 79 nM.
In the case of `Nc1ncnc2c1ncn2C1OC(COP(=O)(O)OP(=O)(O)C(Sc2ccc(Cl)cc2)P(=O)(O)O)C(O)C1O` (stereo not shown) [compound 5], the “activity in other kinase assays” value in [19] is given as “low activity”.
Turning to `O=P(O)(O)C(O)(Cn1ccnc1)P(=O)(O)O` [compound 6, zoledronate], the IC50 in [20] stood at 72000 ± 12000 nM.
Take `Nc1ncnc2c1ncn2[C@@H]1O[C@H](COP(=O)(O)OP(=O)(O)C(Br)(Br)P(=O)(O)O)[C@@H](O)[C@H]1O` [compound 23]: the IC50 in data set [5] turned out to be 16 nM.
Regarding `NCCC(O)(P(=O)(O)O)P(=O)(O)O` [pamidronate], the “GGOH rescue of growth inhibition” value in data set [21] is “very small rescue effects”.

The record behind these values is article PMC6022752 (Journal of the American Chemical Society, 2018).
